The text below walks through data of patent US10596103B2, “Drug delivery system for delivery of anti-virals” (Merck Sharp & Dohme B.V., priority 2013, dated 2020).

The series in a line: Solubility of vicriviroc in EVA by partitioning experiments. It is filed as physicochemical. On the procedure: The solubility of vicriviroc in EVA was determined by partitioning experiments. A small sample of polymer film (approximately 10 mg) was immersed in a saturated aqueous vicriviroc solution (5 mL PBS buffer pH 7). Once the film was immersed the drug diffused from the saturated solution into the film until an equilibrium was achieved. As a result the drug concentration of the aqueous solution decreased and the drug concentration in the film increased. The decrease of the drug concentration in the aqueous solution was continuously measured with a fiber optic probe (Rainbow Dynamic Dissolution Monitor).

With `COC[C@@H](c1ccc(C(F)(F)F)cc1)N1CCN(C2(C)CCN(C(=O)c3c(C)ncnc3C)CC2)C[C@@H]1C` [vicriviroc], the “Vicriviroc loading above which supersaturation occurs” value (in EVA 28) is on record as “above 1.4 % by weight”. Besides, the “Solubility of vicriviroc in EVA 28” value (polymer film in saturated aqueous vicriviroc solution, PBS buffer pH 7, FIG. 14) is recorded as 1.2-1.4 wt %.
